# Source: patent US20220380341A1, “INHIBITORS OF HIV-1 NEF FOR THE TREATMENT OF HIV DISEASE” (priority 2018, published 2022)
# Like-named read-outs stand apart in the source and are kept apart here.
# Experiments:
# HIV-1NL4-3 = assay: HIV-1 infectivity assay in TZM-bl reporter cell line (LTR-luciferase, 48 h); assay type: cell-based; settings: for inhibition at 1 µM: Human immunodeficiency virus 1, TZM-bl
# Method in brief: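 TZM-bl cells infected with HIV-1NL4-3 ± compound (1 μM), luciferase measured at 48 h. Normalization: DMSO/wild-type = 0% inhibition, DMSO/Nef-defective = 100% of Nef-dependent effect.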
# TZM-bl cell line = assay type: cell-based; settings: human, 1 μM
# Method in brief: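 Luciferase read-out 48 h post-infection; compound at 1 μM during HIV-1NL4-3 infection of TZM-bl cells. Percent inhibition scaled to DMSO wild-type virus (0%) and DMSO Nef-defective virus (100% of Nef-dependent effect). Viability checked separately in uninfected cells by Cell Titer Blue.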
# HIV-1 NefNL4-3 = HIV-1 NefNL4-3 (Human immunodeficiency virus type 1 group M subtype B, UniProt P03406, A33V/T15A/T51N/V11I); assay: Surface plasmon resonance binding to recombinant full-length Nef (NL4-3); settings: for RU30/RUNef (extent of binding): response units at 30 μM relative to Nef immobilized on the SPR chip
# HIV-1 Nef SF2 = target: T1, HIV-1 Nef SF2 (Human immunodeficiency virus type 1 group M subtype B, UniProt P03407); assay: biochemical; assay type: binding; settings: two-step induced-fit model, Reichert SPR, read-out: Reichert SPR Nef SF2 (M) two-step fitting
# T1 construct: made in house
# uninfected PBMCs = assay type: cell-based; settings: human
# Description: FIG. 4. Inhibition of HIV-1 replication by compounds disclosed herein in PBMCs. Donor PBMCs were infected with HIV-1 in the presence of inhibitor concentrations ranging from 1 to 1,000 nM or the DMSO carrier solvent as a negative control (0.1% DMSO final). Replication was assessed by p24 Gag AlphaLISA (Perkin Elmer) […]. Each donor was also infected with Nef-defective HIV-1 to establish the baseline for Nef-dependent enhancement of replication in each culture. Cytotoxicity was assessed in uninfected PBMCs over the same incubation period using the CellTiter-Blue assay (Promega). Data were fit by non-linear regression analysis (GraphPad Prism v.7.04) to determine the IC50 and CC50 values shown.
# Non-HLA-typed buffy coats (Source: Pittsburgh Central Blood Bank, #E3755) are received and processed within 24 hours of blood donation. PBMCs are isolated via rocking for RBC separation following 1:1 dilution with PBS, followed by Ficoll gradient centrifugation. The lymphocyte fraction is removed and washed several times for a final concentration of ˜150-300×10^6 cells per donor. Cells are activated for 3 days with 1-5 μg/mL PHA (Sigma) and 50 U/mL IL-2. Cells are plated at 750,000 cells/ml and viability is checked at day 3 using the Cell Titer Blue assay (Promega). If cells are >90% viable, then they are infected with HIV-1 NL4-3, wild-type or Δ-Nef mutant (input typically 30-500 pg/mL p24 capsid equivalents) in the presence or absence of Nef inhibitor analogs. IL-2 is included in the media at the time of infection. After 4 days, cells are lysed with 1% Triton X-100 for 1.5 h, checked for viability via Cell Titer Blue, and frozen/stored at −20° C. HIV-1 replication is assessed with a high-sensitivity HIV-1 p24 AlphaLISA assay (Perkin Elmer) in ½-volume 96-well plates, using one-half of the recommended assay volumes for all reagents (including samples). Assays are read on the BioTek Cytation5 instrument; readout is in AlphaUnits and replication in p24 pg/mL is determined using an HIV-1 p24 capsid protein standard included in the Alpha kit.
# [1] = target: Nef from SIV (strain mac239) (Simian immunodeficiency virus, UniProt Q5QGG3); assay: biochemical
# Description: Also shown are SPR data recorded on a Reichert 4-channel SPR instrument. […] Recombinant Nef is immobilized on the biosensor surface, and each compound is injected and association/dissociation kinetics are recorded. The resulting data for the 3 isoforms are each best-fit using both a two-site model and a two-step, induced-fit model. Dissociation constants (KD), calculated from the kinetic association and dissociation constants from all three isoforms, are shown in columns 6-7. Data were fit using three regimes and the resulting KD: from each model are shown in the Table: 1:1 Langmuir fit; 2-site fit, which yields low and high affinity components; and a 2-step induced fit model.
# HIV-1 NL4-3 = assay: HIV-1 replication in normal donor PBMCs (p24 Gag AlphaLISA); assay type: cell-based; settings: Table 1, 4 days, words (Not active, Borderline) where no bound is given
# Method in brief: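 PHA/IL-2-activated donor PBMCs infected with HIV-1 NL4-3, wild-type or Δ-Nef, with inhibitor (1–1,000 nM, 0.1% DMSO) in IL-2 medium. Lysates taken after 4 days and p24 quantified by AlphaLISA against a p24 standard; IC50 by non-linear regression, CC50 by CellTiter-Blue in uninfected cells.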
# [2] = 1.0 μM, TZM-bl reporter cell line, Table 4, read-out: % Infectivity Inhibition
# [3] = 1 μM, TZM-bl, normalized: DMSO wild-type HIV-1 = 0%, Nef-defective HIV-1 = 100%, read-out: HIV-1 Infectivity % Inhibition norm. to Δ-Nef @ 1 μM
# [4] = KD, M, Table 4, SPR fit 2-step induced fit, KD = koff/kon × koff2/(koff2 + kon2)
# [5] = Nef NL4-3 Binding, SPR 1:1 or 2-site fitting KD2, Table 1, 2-site fit, second component
# [6] = Reichert SPR Nef NL43 (M) two-step fitting, KD, two-step induced-fit model, Reichert SPR, Table 3
# [7] = 48 h, Table 1, TZM-bl cells, 1 μM, 48 h, 100% = Nef-defective HIV-1, read-out: HIV-1 Infectivity % Inhibition Norm. to Δ-Nef @ 1 μM
# [8] = Nef NL4-3 Binding, SPR 2-state fitting KD, Table 1, 2-step induced-fit model
# [9] = Table 4, 2-step induced fit, T = 1/koff2
# [10] = KD, M, Table 4, SPR fit 1:1 Langmuir, KD = koff/kon
# [11] = Table 4, 1:1 Langmuir fit, T = 1/koff
SMILES,inhibition at 1 µM (HIV-1NL4-3; [2]) [%],inhibition at 1 µM (HIV-1NL4-3; [3]) [%],% Cell Viability (TZM-bl cell line) [%],Kd (HIV-1 NefNL4-3; [4]) [M],Kd (HIV-1 NefNL4-3; [6]) [M],RU30/RUNef (extent of binding) (HIV-1 NefNL4-3),Kd (HIV-1 Nef SF2) [M],Toxicity in HIV Replication PBMC (Toxic @ concentration) (uninfected PBMCs),Kd [1] [nM],inhibition at 1 µM (HIV-1NL4-3; [7]) [%],Percent Viability @ 1 μM (TZM-bl cells) (TZM-bl cell line) [%],Kd (HIV-1 NefNL4-3) [M],"T, minutes (residence time) (HIV-1 NefNL4-3; [9])",HIV Replication PBMC IC50 vs. HIV NL4-3 (HIV-1 NL4-3),Kd (HIV-1 NefNL4-3; [10]) [M],"T, minutes (residence time) (HIV-1 NefNL4-3; [11])",other results
"Oc1c(CCc2ccc(F)cc2)c(-c2ccc(C(F)(F)F)cc2)nn1-c1nc2cccnc2[nH]1 [Compound I-301, 4-[2-(4-fluorophenyl)ethyl]-1-{1H-imidazo[4,5-b]pyridin-2-yl}-3-[4-(trifluoromethyl)phenyl]-1H-pyrazol-5-ol]",81.2,81.2,90.7,6e-11,6e-11,1.34E- 02,3.69e-08,Toxic @ 1 μM,1.74,–,–,–,–,–,–,–,Toxicity % Viability @ 1 μM (TZM-bl) (TZM-bl cell line): 90.7%; Kd (HIV-1 NefNL4-3; [5]): 2.31e-05 M
"CS(=O)(=O)c1ccc(-c2nn(-c3nc4ccccc4[nH]3)c(O)c2CCc2ccc(F)cc2)cc1 [Compound I-148, 1-(1H-1,3-benzodiazol-2-yl)-4-[2-(4-fluorophenyl)ethyl]-3-(4-methanesulfonylphenyl)-1H-pyrazol-5-ol]",98.1,98.1,75.5,3.33e-10,3.33e-10,1.32E- 02,2.07e-11,Toxic @ 1 μM,1.08,98.1,75.5,6.56e-07,3.26E + 04 minutes,Not active,–,–,Kd (HIV-1 NefNL4-3; [5]): 1.77e-06 M; Kd (HIV-1 NefNL4-3; [8]): 3.33e-10 M
"CC(C)OC(=O)N1CCC(c2nn(-c3nc4cc(Cl)ccc4[nH]3)c(O)c2CCC2CCOCC2)CC1 [Compound I-701, propan-2-yl4-[1-(5-chloro-1H-1,3-benzodiazol-2-yl)-5-hydroxy-4-[2-(oxan-4-yl)ethy1]-1H-pyrazol-3-yl]piperidine-1-carboxylate]",100,106,98.7,2.88e-06,2.88e-06,5.85E- 03,1.37e-07,Toxic @ 10 nM,19300,106,98.7,2.64e-08,4.73E + 00 minutes,–,–,–,"Kd (HIV-1 NefNL4-3; [8]): 2.88e-06 M; Kd (HIV-1 NefNL4-3; read-out: Nef NL4-3 Binding, SPR 1:1 or 2-site fitting KD2, Table 1, 2-site fit, second component): 4.02e-06 M"
"O=C(OCc1ccccc1)N1CCC(c2nn(-c3nc4cccc(Cl)c4[nH]3)c(O)c2CCc2ccc(F)cc2)CC1 [Compound I-166, benzyl 4-[1-(7-chloro-1H-1,3-benzodiazol-2-yl)-4-[2-(4-fluorophenyl)ethyl]-5-hydroxy-1H-pyrazol-3-yl]piperidine-1-carboxylate]",24.6,–,97.0,–,–,4.21E- 03,–,Toxic @ 1 μM,–,24.6,97.0,6.03e-09,–,Not active,6.03e-09,2.07E + 03 minutes,–
"Oc1c(CCc2ccc(F)cc2)c(-c2ccc(C(F)(F)F)cc2)nn1-c1nc2ccncc2[nH]1 [Compound I-309, 4-[2-(4-fluorophenyl)ethyl]-1-{3H-imidazo[4,5-c]pyridin-2-yl}-3-[4-(trifluoromethyl)phenyl]-1H-pyrazol-5-ol]",92.2,–,99.1,–,–,1.59E- 03,–,Toxic @ 1 μM,–,92.2,99.1,5.76e-10,–,Not active,5.76e-10,1.78E + 04 minutes,–
"CC(C)(C)OC(=O)N1CCC(CCc2c(-c3ccc(S(C)(=O)=O)cc3)nn(-c3nc4cc(Cl)ccc4[nH]3)c2O)CC1 [Compound I-215, tert-butyl 4-{2-[1-(5-chloro-1H-1,3-benzodiazol-2-yl)-5-hydroxy-3-(4-methanesulfonylphenyl)-1H-pyrazol-4-yl]ethyl}piperidine-1-carboxylate]",53.5,–,74.5,1.62e-07,–,1.00E- 02,–,Toxic @ 1 μM,–,–,–,–,5.87E + 01 minutes,Not active,–,–,"HIV-1 Infectivity % Inhibition Norm. to Δ-Nef @ 1 μM (HIV-1NL4-3; Table 1, TZM-bl cells, 1 μM, 48 h, 100% = Nef-defective HIV-1): 73.6%"
"O=C(OCc1ccccc1)N1CCC(Cc2c(-c3ccc(C(F)(F)F)cc3)nn(-c3nc4ccccc4[nH]3)c2O)CC1 [Compound I-162, benzyl 4-{[1-(1H-1,3-benzodiazol-2-yl)-5-hydroxy-3-[4-(trifluoromethyl)phenyl]-1H-pyrazol-4-yl]methyl}piperidine-1-carboxylate]",77.5,–,90.8,–,–,4.69E- 03,–,Toxic @ 1 μM,–,–,–,1.86e-09,–,Not active,1.86e-09,8.05E + 03 minutes,"Nef NL4-3 Binding, SPR 1:1 or 2-site fitting KD1 (HIV-1 NefNL4-3; Table 1, 1:1 Langmuir fit where the KD2 cell says '1 to 1 fitting', else 2-site fit): No Interaction"
